Measurements published in PubChem BioAssay (NCI).
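Briefly, cells in 96-well plates were exposed to five compound concentrations for 48 h, and endpoints were estimated by linear interpolation. The concentration for 50% growth inhibition is given as GI50. Definition used: TGI = concentration required for complete inhibition of growth.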

Tests used:
Experiment in all cases: growth of human tumour cells (NCI), 48 h; in the data active = GI50 below about 0.43 µM; inactive = the rest
[1] = system: 786-0 renal
[2] = system: A498 renal
[3] = system: A549 NSCLC
[4] = system: ACHN renal
[5] = system: BT-549 breast
[6] = system: CAKI-1 renal
[7] = system: CCRF-CEM leukemia
[8] = system: COLO 205 colon
[9] = system: DU-145 prostate
[10] = system: EKVX NSCLC
[11] = system: HCC-2998 colon
[12] = system: HCT-116 colon
[13] = system: HCT-15 colon
[14] = system: HL-60(TB) leukemia
[15] = system: HOP-62 NSCLC
[16] = system: HOP-92 NSCLC
[17] = system: HS 578T breast
[18] = system: HT29 colon
[19] = system: IGROV1 ovarian
[20] = system: K-562 leukemia
[21] = system: KM12 colon
[22] = system: LOX IMVI melanoma
[23] = system: M14 melanoma
[24] = system: MALME-3M melanoma
[25] = system: MCF7 breast
[26] = system: MDA-MB-231 breast
[27] = system: MDA-MB-435
[28] = system: MOLT-4 leukemia
[29] = system: NCI-H226 lung
[30] = system: NCI-H23 lung
[31] = system: NCI-H460 lung
[32] = system: NCI-H522 lung
[33] = system: NCI/ADR-RES ovarian
[34] = system: OVCAR-3 ovarian
[35] = system: OVCAR-4 ovarian
[36] = system: OVCAR-5 ovarian
[37] = system: OVCAR-8 ovarian
[38] = system: PC-3 prostate
[39] = system: RPMI-8226 leukemia
[40] = system: RXF 393 renal
[41] = system: SF-268 CNS
[42] = system: SF-295 CNS
[43] = system: SF-539 CNS
[44] = system: SK-MEL-2 melanoma
[45] = system: SK-MEL-28 melanoma
[46] = system: SK-MEL-5 melanoma
[47] = system: SK-OV-3 ovarian
[48] = system: SN12C renal
[49] = system: SNB-19 CNS
[50] = system: SNB-75 CNS
[51] = system: SR leukemia
[52] = system: SW-620 colon
[53] = system: T-47D breast
[54] = system: TK-10 renal
[55] = system: U251 CNS
[56] = system: UACC-257 melanoma
[57] = system: UACC-62 melanoma
[58] = system: UO-31 renal

CC(C)c1ccc(Nc2ccc3c(OCCCN4CCN(C)CC4)cccc3n2)cc1
30.7 µM: TGI [54]
6.92 µM: TGI [26]
31.6 µM: TGI [53]
4.32 µM: TGI [45]
3.96 µM: TGI [8]
36.5 µM: TGI [44]
inactive: GI50 [1] 11.4 µM | GI50 [2] 16.4 µM | GI50 [3] 15.6 µM | GI50 [4] 12.6 µM | GI50 [5] 12.3 µM | GI50 [6] 12.6 µM | GI50 [7] 3.74 µM | GI50 [8] 1.97 µM | GI50 [9] 13.9 µM | GI50 [10] 14 µM | GI50 [11] 1.77 µM | GI50 [12] 5.9 µM | GI50 [13] 1.94 µM | GI50 [14] 10.5 µM | GI50 [15] 12 µM | GI50 [16] 10.6 µM | GI50 [17] 16.9 µM | GI50 [18] 2.16 µM | GI50 [19] 16.1 µM | GI50 [20] 2.05 µM | GI50 [21] 11.3 µM | GI50 [22] 1.86 µM | GI50 [23] 2.85 µM | GI50 [24] 3.66 µM | GI50 [25] 3.21 µM | GI50 [26] 2.11 µM | GI50 [27] 6.62 µM | GI50 [28] 2.92 µM | GI50 [29] 18.8 µM | GI50 [30] 11.9 µM | GI50 [31] 5.44 µM | GI50 [32] 19.9 µM | GI50 [33] 15.9 µM | GI50 [34] 14.4 µM | GI50 [35] 13.9 µM | GI50 [36] 15.6 µM | GI50 [37] 17.8 µM | GI50 [38] 12.9 µM | GI50 [39] 3.39 µM | GI50 [40] 7.28 µM | GI50 [41] 12.2 µM | GI50 [42] 3.63 µM | GI50 [43] 11.1 µM | GI50 [44] 19.6 µM | GI50 [45] 1.89 µM | GI50 [46] 15.3 µM | GI50 [47] 15.7 µM | GI50 [48] 15.6 µM | GI50 [49] 12.5 µM | GI50 [50] 12.8 µM | GI50 [51] 2.85 µM | GI50 [52] 8.9 µM | GI50 [53] 12.9 µM | GI50 [54] 16.5 µM | GI50 [55] 3.28 µM | GI50 [56] 5.65 µM | GI50 [57] 2.17 µM | GI50 [58] 12.9 µM
29.8 µM: TGI [3]
38.7 µM: TGI [29]
4.28 µM: TGI [13]
30.2 µM: TGI [46]
31.4 µM: TGI [38]
36.8 µM: TGI [2]
4.48 µM: TGI [20]
28.5 µM: TGI [35]
28.3 µM: TGI [10]
16.2 µM: TGI [56]
10.3 µM: TGI [55]
10.4 µM: TGI [23]
20.6 µM: TGI [12]
28 µM: TGI [4]
39.7 µM: TGI [32]
27.4 µM: TGI [16] | TGI [41]
15.3 µM: TGI [42]
32.9 µM: TGI [33]
31.2 µM: TGI [36] | TGI [47]
22.4 µM: TGI [40]
40.3 µM: TGI [17]
10.7 µM: TGI [51]
26.1 µM: TGI [30]
4.86 µM: TGI [57]
4.92 µM: TGI [18]
32.6 µM: TGI [19]
26.4 µM: TGI [15]
15 µM: TGI [25]
31.9 µM: TGI [48]
25.6 µM: TGI [21]
28.8 µM: TGI [6] | TGI [14]
27.8 µM: TGI [58]
16.6 µM: TGI [24]
22.9 µM: TGI [52]
26.9 µM: TGI [9]
28.7 µM: TGI [5]
18 µM: TGI [31]
3.54 µM: TGI [22]
33.3 µM: TGI [37]
30 µM: TGI [43] | TGI [49] | TGI [50]
21.3 µM: TGI [7]
3.35 µM: TGI [11]
8.2 µM: TGI [28]
27 µM: TGI [1]
27.5 µM: TGI [34]
14.3 µM: TGI [39]
21.4 µM: TGI [27]

Cn1c(=O)c2c(nc(Nc3cc(=O)[nH]c(=O)[nH]3)n2Cc2ccccc2)n(C)c1=O
> 100 µM: TGI [1] | TGI [2] | TGI [3] | TGI [4] | TGI [5] | TGI [6] | TGI [7] | TGI [8] | TGI [9] | TGI [10] | TGI [11] | TGI [12] | TGI [13] | TGI [14] | TGI [15] | TGI [16] | TGI [17] | TGI [18] | TGI [19] | TGI [20] | TGI [21] | TGI [22] | TGI [23] | TGI [24] | TGI [25] | TGI [26] | TGI [27] | TGI [28] | TGI [29] | TGI [30] | TGI [31] | TGI [32] | TGI [33] | TGI [34] | TGI [35] | TGI [36] | TGI [37] | TGI [38] | TGI [39] | TGI [40] | TGI [41] | TGI [42] | TGI [43] | TGI [44] | TGI [45] | TGI [46] | TGI [47] | TGI [48] | TGI [49] | TGI [50] | TGI [51] | TGI [52] | TGI [53] | TGI [54] | TGI [55] | TGI [56] | TGI [57] | TGI [58]
inactive: GI50 [1] > 100 µM | GI50 [2] 7.97 µM | GI50 [3] > 100 µM | GI50 [4] > 100 µM | GI50 [5] 69.4 µM | GI50 [6] 50.1 µM | GI50 [7] > 100 µM | GI50 [8] > 100 µM | GI50 [9] > 100 µM | GI50 [10] 56.6 µM | GI50 [11] > 100 µM | GI50 [12] > 100 µM | GI50 [13] > 100 µM | GI50 [14] > 100 µM | GI50 [15] > 100 µM | GI50 [16] 7.51 µM | GI50 [17] > 100 µM | GI50 [18] > 100 µM | GI50 [19] > 100 µM | GI50 [20] 82.5 µM | GI50 [21] > 100 µM | GI50 [22] > 100 µM | GI50 [23] > 100 µM | GI50 [24] > 100 µM | GI50 [25] > 100 µM | GI50 [26] > 100 µM | GI50 [27] > 100 µM | GI50 [28] > 100 µM | GI50 [29] > 100 µM | GI50 [30] > 100 µM | GI50 [31] > 100 µM | GI50 [32] > 100 µM | GI50 [33] > 100 µM | GI50 [34] > 100 µM | GI50 [35] 46.9 µM | GI50 [36] > 100 µM | GI50 [37] > 100 µM | GI50 [38] > 100 µM | GI50 [39] 15.9 µM | GI50 [40] > 100 µM | GI50 [41] > 100 µM | GI50 [42] > 100 µM | GI50 [43] > 100 µM | GI50 [44] > 100 µM | GI50 [45] > 100 µM | GI50 [46] 48 µM | GI50 [47] > 100 µM | GI50 [48] > 100 µM | GI50 [49] > 100 µM | GI50 [50] 12.5 µM | GI50 [51] > 100 µM | GI50 [52] > 100 µM | GI50 [53] > 100 µM | GI50 [54] > 100 µM | GI50 [55] > 100 µM | GI50 [56] > 100 µM | GI50 [57] 65.8 µM | GI50 [58] 77 µM
